± gives the standard deviation of the averaged measurements.
Key:
Experiment in all cases: level (log10 ratio to DMSO vehicle control); higher = higher biomarker level / cell amount than vehicle control
[1] = compound: O=C(O)C=C(C(F)(F)F)C(F)(F)F [3,3-Bis(trifluoromethyl)-2-propenoic acid] (in DMSO)
Method: (§1)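 BioMAP Diversity Plus panel of 12 human primary cell co-culture systems (3C, 4H, LPS, SAg, BT, BF4T, BE3C, CASM3C, HDF3CGF, KF3CT, MyoF, Mphg). Compounds were added 1 h before stimulation and left for 24 h (MyoF 48 h; BT 72 h for soluble read-outs or 6 d for IgG). Biomarkers were read by ELISA, cytotoxicity by SRB, PBMC viability and proliferation by Alamar Blue. Each well value was divided by the mean of 8 DMSO control wells on the same plate and log10 transformed; duplicate blinded samples were tested at 4 concentrations.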

[2] = compound: O=S(=O)(O)CCC(F)(F)C(F)(F)C(F)(F)C(F)(F)C(F)(F)C(F)(F)C(F)(F)C(F)(F)F [8:2 Fluorotelomer sulfonic acid] (in DMSO)
Method: as §1

[3] = compound: CCOC(=O)CC(=O)C(F)(F)C(F)(F)F [Ethyl pentafluoropropionyl acetate] (in DMSO)
Method: as §1

[4] = compound: OCC(F)(F)C(F)(F)C(F)(F)C(F)F [1H,1H,5H-Perfluoropentanol] (in DMSO)
Method: as §1

[5] = compound: OCC(F)(F)C(F)(F)C(F)(F)C(F)(F)C(F)(F)C(F)(F)CO [1H,1H,8H,8H-Perfluorooctane-1,8-diol] (in DMSO)
Method: as §1

Perfluoroundecanoic acid = compound: O=C(O)C(F)(F)C(F)(F)C(F)(F)C(F)(F)C(F)(F)C(F)(F)C(F)(F)C(F)(F)C(F)(F)C(F)(F)F [Perfluoroundecanoic acid] (in DMSO); conditions: 6700 nM
Method: as §1

[6] = compound: O=C(O)CCC(F)(C(F)(F)F)C(F)(F)F [4,4-bis(Trifluoromethyl)-4-fluoropropanoic acid] (in DMSO)
Method: as §1

Row | Test System | level (log10) ([1]; 6700 nM) | level (log10) ([1]; 20000 nM) | level (log10) ([1]; 60000 nM) | level (log10) ([2]; 6700 nM) | level (log10) ([2]; 20000 nM) | level (log10) ([2]; 60000 nM) | level (log10) ([3]; 6700 nM) | level (log10) ([3]; 20000 nM) | level (log10) ([3]; 60000 nM) | level (log10) ([4]; 6700 nM) | level (log10) ([4]; 20000 nM) | level (log10) ([4]; 60000 nM) | level (log10) ([5]; 6700 nM) | level (log10) ([5]; 20000 nM) | level (log10) ([5]; 60000 nM) | level (log10) (Perfluoroundecanoic acid) | level (log10) ([6]; 6700 nM) | level (log10) ([6]; 20000 nM) | level (log10) ([6]; 60000 nM)
1 | HDF3CGF:SRB | -0.014 ± 0.028 | 0.0125 ± 0.021 | -0.022 ± 0.02 | -0.044 ± 0.064 | -0.017 ± 0.1 | 0.168 ± 0.037 | 0.007 ± 0.027 | -0.0005 ± 0.032 | 0.0025 ± 0.021 | -0.0275 ± 0.0064 | -0.0025 ± 0.03 | -0.0015 ± 0.037 | -0.043 ± 0.052 | -0.0135 ± 0.056 | -0.0405 ± 0.1 | 0.0395 ± 0.011 | -0.0385 ± 0.07 | -0.0245 ± 0.042 | 0.045 ± 0.041
2 | CASM3C:LDLR | -0.008 ± 0.011 | -0.0175 ± 0.0064 | -0.022 ± 0.016 | -0.0005 ± 0.0064 | 0.0135 ± 0.013 | 0.0415 ± 0.026 | -0.0125 ± 0.019 | -0.002 ± 0.0085 | 0.0035 ± 0.013 | -0.0555 ± 0.086 | -0.0425 ± 0.044 | -0.0125 ± 0.00071 | 0.0045 ± 0.005 | -0.0015 ± 0.0035 | 0.0075 ± 0.032 | -0.0265 ± 0.016 | -0.0085 ± 0.037 | 0.0045 ± 0.036 | 0.018 ± 0.014
3 | HDF3CGF:Proliferation 72hr | -0.0325 ± 0.021 | -0.086 ± 0.069 | -0.24 ± 0.066 | 0.0275 ± 0.044 | 0.0785 ± 0.06 | 0.107 ± 0.0014 | -0.019 ± 0.073 | -0.017 ± 0.092 | 0.036 ± 0.017 | -0.023 ± 0.058 | 0.035 ± 0.024 | 0.0065 ± 0.025 | -0.04 ± 0.013 | -0.0035 ± 0.026 | -0.102 ± 0.027 | -0.557 ± 0.11 | -0.0275 ± 0.035 | 0.0025 ± 0.028 | 0.037 ± 0.0014
4 | CASM3C:M-CSF | -0.0435 ± 0.0035 | -0.044 ± 0.02 | -0.068 ± 0.033 | 0.0005 ± 0.015 | -0.0115 ± 0.0021 | 0.037 ± 0.028 | -0.0145 ± 0.00071 | -0.0175 ± 0.0064 | -0.0025 ± 0.028 | 0.025 ± 0.024 | -0.0195 ± 0.022 | 0.0045 ± 0.063 | -0.0185 ± 0.035 | -0.0215 ± 0.0078 | -0.012 ± 0.035 | 0.019 ± 0.0085 | -0.0145 ± 0.042 | 0.024 ± 0.048 | 0.0875 ± 0.056
5 | lMphg:CCL3/MIP-1alpha | -0.0065 ± 0.071 | -0.0015 ± 0.023 | -0.0075 ± 0.016 | 0.0035 ± 0.03 | 0.0095 ± 0.026 | 0.0065 ± 0.032 | -0.0265 ± 0.026 | -0.0305 ± 0.0078 | 0.0075 ± 0.022 | -0.012 ± 0.024 | -0.011 ± 0.027 | 0.0095 ± 0.0078 | -0.023 ± 0.0014 | -0.016 ± 0.0085 | 0.018 ± 0.025 | -0.004 ± 0.023 | 0.03 ± 0.047 | 0.0255 ± 0.025 | 0.021 ± 0.035
6 | lMphg:SRB-Mphg | -0.032 | -0.017 ± 0.014 | 0.0035 ± 0.012 | 0.003 ± 0.0028 | -0.012 ± 0.014 | -0.027 ± 0.013 | -0.0015 ± 0.018 | -0.0055 ± 0.005 | -0.012 ± 0.02 | -0.012 ± 0.023 | -0.0605 ± 0.057 | 0.0145 ± 0.033 | -0.053 ± 0.079 | -0.031 ± 0.014 | -0.018 ± 0.027 | -0.019 ± 0.016 | 0.0125 ± 0.0021 | -0.0025 ± 0.012 | 0.002 ± 0.016
7 | lMphg:IL-1alpha | -0.073 ± 0.068 | -0.0565 ± 0.052 | -0.043 ± 0.075 | -0.019 ± 0.014 | -0.011 ± 0.028 | -0.035 ± 0.05 | -0.0145 ± 0.011 | -0.016 ± 0.024 | 0.0045 ± 0.0092 | -0.055 ± 0.017 | -0.0185 ± 0.005 | 0.011 ± 0.044 | -0.011 ± 0.041 | -0.012 ± 0.0085 | 0.0855 ± 0.047 | 0.022 ± 0.045 | 0.0125 ± 0.07 | 0.022 ± 0.011 | 0.0125 ± 0.026
8 | MyoF:Collagen I | -0.031 ± 0.0057 | -0.046 ± 0.021 | -0.055 ± 0.04 | 0.004 ± 0.0042 | -0.0265 ± 0.026 | -0.024 ± 0.0071 | -0.0085 ± 0.026 | -0.0155 ± 0.036 | -0.014 ± 0.041 | -0.003 ± 0.0057 | 0.021 ± 0.041 | 0.0305 ± 0.052 | -0.0045 ± 0.025 | -0.0165 ± 0.013 | -0.0145 ± 0.0035 | -0.421 ± 0.0092 | -0.0045 ± 0.012 | -0.0065 ± 0.0092 | 0.008 ± 0.0028
9 | HDF3CGF:CXCL8/IL-8 | 0.008 ± 0.0014 | -0.001 | 0.022 ± 0.011 | -0.0145 ± 0.0064 | -0.0045 ± 0.0035 | -0.0015 ± 0.026 | -0.005 ± 0.0028 | -0.0045 ± 0.011 | -0.002 ± 0.021 | -0.0045 ± 0.0064 | -0.002 ± 0.0014 | 0.0095 ± 0.032 | 0.002 ± 0.0071 | -0.0015 ± 0.005 | 0.009 ± 0.0099 | 0.013 ± 0.0028 | -0.0105 ± 0.013 | -0.0005 ± 0.0092 | 0.0065 ± 0.03
10 | KF3CT:SRB | -0.0015 ± 0.0021 | 0.003 | 0.024 ± 0.0071 | -0.008 ± 0.0014 | -0.0145 ± 0.0021 | -0.004 ± 0.0071 | -0.002 | 0.0005 ± 0.0035 | -0.004 ± 0.0014 | 0.003 ± 0.0028 | 0.0025 ± 0.0035 | 0.0025 ± 0.0035 | -0.003 | -0.004 ± 0.0085 | -0.0085 ± 0.0092 | -0.0105 ± 0.0021 | -0.003 ± 0.0042 | 0.004 ± 0.0071 | 0.008 ± 0.0099
11 | MyoF:CD106/VCAM-1 | -0.0825 ± 0.00071 | -0.145 ± 0.0021 | -0.291 ± 0.04 | -0.0035 ± 0.0021 | -0.0325 ± 0.016 | -0.084 ± 0.02 | -0.0125 ± 0.012 | -0.012 ± 0.023 | -0.0105 ± 0.021 | -0.02 ± 0.0099 | -0.0005 ± 0.035 | 0.0165 ± 0.015 | -0.0045 ± 0.0035 | 0.0105 ± 0.0021 | 0.0295 ± 0.011 | -0.079 ± 0.018 | -0.0065 ± 0.0078 | -0.0095 ± 0.026 | -0.0045 ± 0.015
12 | HDF3CGF:CCL2/MCP-1 | -0.0775 ± 0.052 | -0.0935 ± 0.056 | -0.084 ± 0.028 | 0.0005 ± 0.022 | -0.008 ± 0.03 | 0.0115 ± 0.022 | -0.022 ± 0.0042 | -0.0135 ± 0.005 | 0.009 ± 0.047 | -0.046 ± 0.027 | -0.014 ± 0.068 | -0.0225 ± 0.047 | -0.012 | -0.0175 ± 0.015 | -0.0185 ± 0.016 | -0.077 ± 0.042 | -0.014 ± 0.016 | -0.01 ± 0.017 | 0.005 ± 0.0042
13 | HDF3CGF:CXCL10/IP-10 | -0.0175 ± 0.005 | -0.0445 ± 0.005 | -0.04 ± 0.025 | -0.014 ± 0.0014 | -0.0315 ± 0.0092 | -0.06 ± 0.016 | -0.0125 ± 0.015 | -0.0105 ± 0.022 | -0.046 ± 0.0085 | -0.0255 ± 0.019 | 0.0095 ± 0.0021 | 0.005 ± 0.018 | -0.01 ± 0.014 | 0.018 ± 0.027 | 0.021 ± 0.034 | -0.144 ± 0.0092 | -0.0175 ± 0.084 | -0.0415 ± 0.088 | -0.0395 ± 0.035
14 | HDF3CGF:CD106/VCAM-1 | -0.0485 ± 0.021 | -0.0795 ± 0.005 | -0.17 ± 0.013 | 0.0015 ± 0.091 | 0.007 ± 0.073 | -0.072 ± 0.045 | 0.007 ± 0.011 | -0.0025 ± 0.005 | 0.006 ± 0.02 | -0.0535 ± 0.015 | 0.023 ± 0.048 | 0.0145 ± 0.043 | 0.02 ± 0.033 | 0.0365 ± 0.00071 | 0.017 ± 0.052 | -0.213 ± 0.044 | -0.0525 ± 0.069 | -0.0555 ± 0.12 | -0.0835 ± 0.12
15 | lMphg:M-CSF | -0.033 ± 0.0071 | -0.021 ± 0.021 | -0.0325 ± 0.022 | -0.0075 ± 0.033 | -0.014 ± 0.013 | 0.012 | -0.01 ± 0.0099 | -0.001 ± 0.028 | 0.005 ± 0.0014 | 0.0115 ± 0.016 | -0.0125 ± 0.0064 | 0.0175 ± 0.021 | -0.015 ± 0.013 | -0.013 ± 0.016 | 0.013 ± 0.067 | 0.016 ± 0.02 | -0.0115 ± 0.043 | -0.0135 ± 0.032 | -0.0165 ± 0.019

— the supplement of paper PMC10331698
